Data as given in publication PMC9743128, “Phenotype-based screening rediscovered benzopyran-embedded microtubule inhibitors as anti-neuroinflammatory agents by modulating the tubulin–p65 interaction” (Experimental & Molecular Medicine, 2022).

Experiments:
[1] = test system: LPS-mediated NO release in BV-2 microglial cells; experiment: Griess assay: cellular NO release after LPS treatment; type: cell-based, murine
Description: Cellular secretion of nitric oxide (NO) was quantified with the Griess assay. BV-2 cells were seeded on a clear flat bottom TC-treated 96-well plate (Corning; #3598) and sealed with breathable sealing tape (Axygen; BF-400-S). After 18 h, BV-2 cells were treated with compounds in the absence or presence of 100 ng/mL LPS (Sigma; L4391). After 24 h, 50 μL of the cell culture media was mixed with the same volume of Griess reagent {0.1% naphthylethylenediamine dihydrochloride (Sigma; #222488) and 1% sulfanilamide (Sigma; S9251) in 4% phosphoric acid (Daejung; #6532-4405)}. Absorbance at 550 nm was measured using a microplate reader (BioTek; Synergy). Sodium nitrite (Alfa Aesar; A18668) was used for standard curve generation.
Microglia are tissue-resident macrophages involved in CNS immunosurveillance[3],[39]. Microglial activation induces proinflammatory cytokine tumor necrosis factor α (TNF-α) expression, resulting in neural toxicity[5],[6]. Therefore, the inhibition of microglial activation is critical for regulating neuroinflammation. To discover anti-neuroinflammatory NCEs, we monitored the cellular release of nitric oxide (NO) in response to lipopolysaccharide (LPS) treatment as a mimic of pathogenic activation of innate immune systems upon compound treatment in BV-2 cells using the Griess assay.

[2] = test system: α-tubulin monomers in RAW264.7 cells; experiment: Tubulin monomer/polymer isolation and western blot; type: cell-based, murine; settings: 10 μM for 6 h
[3] = biological target: T1, p65–α-tubulin interaction (Mus musculus, UniProt P05213+P99024); experiment: Immunoprecipitation of p65, IκB and α-tubulin; type: cell-based, murine; settings: 1 h treatment, 10 μM
T1 construct: endogenous in cells
T1 sequence (P05213 whole entry): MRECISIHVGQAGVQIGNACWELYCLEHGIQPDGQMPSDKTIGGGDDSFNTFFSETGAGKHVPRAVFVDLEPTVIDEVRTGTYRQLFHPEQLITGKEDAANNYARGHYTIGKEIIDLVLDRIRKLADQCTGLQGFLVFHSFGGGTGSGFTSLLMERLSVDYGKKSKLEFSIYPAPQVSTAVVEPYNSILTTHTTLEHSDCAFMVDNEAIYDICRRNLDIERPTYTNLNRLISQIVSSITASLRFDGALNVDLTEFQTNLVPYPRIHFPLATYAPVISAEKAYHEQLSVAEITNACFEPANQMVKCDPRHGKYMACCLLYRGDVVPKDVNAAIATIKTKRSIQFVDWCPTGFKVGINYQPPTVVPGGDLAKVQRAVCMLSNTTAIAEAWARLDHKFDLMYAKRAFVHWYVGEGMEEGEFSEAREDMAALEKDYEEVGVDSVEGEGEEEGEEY
T1 sequence (P99024 whole entry): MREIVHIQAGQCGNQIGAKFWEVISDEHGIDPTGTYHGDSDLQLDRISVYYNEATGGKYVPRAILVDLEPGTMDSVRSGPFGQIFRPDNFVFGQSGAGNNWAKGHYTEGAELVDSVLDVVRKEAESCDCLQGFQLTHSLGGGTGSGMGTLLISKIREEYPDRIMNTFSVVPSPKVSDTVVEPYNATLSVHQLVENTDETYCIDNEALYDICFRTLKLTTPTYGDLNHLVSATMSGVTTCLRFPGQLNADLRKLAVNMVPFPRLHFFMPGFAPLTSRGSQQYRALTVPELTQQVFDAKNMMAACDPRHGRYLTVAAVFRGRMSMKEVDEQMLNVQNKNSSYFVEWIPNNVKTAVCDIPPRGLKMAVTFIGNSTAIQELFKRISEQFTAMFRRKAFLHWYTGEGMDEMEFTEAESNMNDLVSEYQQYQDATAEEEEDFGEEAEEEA
Description: After a 1-h incubation in the absence or presence of SB26019, cells were harvested and lysed for 1 h on ice with IP lysis buffer {50 mM Tris–HCl pH 8.0 (Acros; #77-86-1), 200 mM NaCl, 0.5% NP40 (Sigma; #I8896), and 1× protease inhibitor cocktail (Roche; #11873580001)}. The protein concentration was measured using a bicinchoninic acid (BCA) protein assay kit (Thermo; #23225). Then, 150 μg of the lysates were incubated with 1.5 μg of anti-p65 antibody (Abcam; ab16502), anti-IκB antibody (CST; #4814), or α-tubulin antibody (CST; #3873) at 4 °C overnight. Subsequently, the proteins of interest were precipitated using protein A and G beads (Santa Cruz; sc-2001, sc-2002). Samples were analyzed with western blotting using anti-p65, IκB, and α-tubulin primary antibodies.
To understand the inhibitory mechanism of p65 nuclear translocation by SB26019, the expression levels of p65, IκB, and tubulin monomers were monitored upon SB26019 treatment in murine macrophage cells. […] Additionally, nuclear translocation of p65 was inhibited by SB26019 treatment despite an increase in phospho-IκB and a decrease in total IκB (Fig. 3e). […] Consequently, IκB is released from p65 and degraded by the proteasome. […] To test this hypothesis, we monitored protein‒protein interactions among p65, IκB, and tubulin with immunoprecipitation. […]

[4] = test system: J774A.1 cells; experiment: Flow cytometry cell cycle analysis (PI staining); type: cell-based, murine
Description: NF-κB SEAP reporter HEK293T cell (Invivogen; hkb-mmcl) were seeded 10,000 cells/well at white 96-well plate (Falcon; 353296). HEK293 cells were transfected with a 1 to 1 ratio of 3xAP1pGL3 (Addgene; #40342) and pRL-TK (Promega; E2241) mixture using LTX plus (Invitrogen; 15338100) and opti-MEM (Gibco; 31985070) according to the manufacturer's protocol. After 24-h compound treatment or the overexpression of α-tubulin or GFP, 40 μl of the medium was transferred to a 96-well plate and mixed with 180 μl of quanti-blue solution (Invitrogen; rep-qbs) for the measurement of NF-κB activation. We measured the absorbance at 655 nm after 2-h incubation at 37 °C. To measure the AP-1 activation, cells were washed with PBS and lysed with 20 μl of 1× passive lysis buffer for 15 min. Luciferase signals were measured by dual-luciferase reporter assay system (Progema; E1980) using a microplate reader (BioTek; Synergy HTX). Expression levels of SEAP and AP-1 were normalized by renilla luciferase signal.
J774A.1 cells were treated with each compound for the designated time and dose. The cells were trypsinized and re-suspended in PBS containing 2% FBS (Gibco; #16000-044). To measure cell cycle arrest, the same number of the re-suspended cells was stained with propidium iodide (PI) (Abcam; ab14085) according to the manufacturer’s protocol. […]

[5] = Pharmacokinetic (PK) study after IP injection; settings: C57BL/6, mouse, in vivo, I.P., 5 mg/kg

IC50 ([1]; Mus musculus, BV-2 cells, 100 ng/mL LPS, 24 h): 1130 nM
Interaction between p65 and α-tubulin [3]: increased
Cell cycle arrest [4]: no cell cycle arrest
AUC(0-inf) [5]: 1790 ± 310 ng·h/mL
AUC(0-t) [5]: 1770 ± 300 ng·h/mL
Cmax [5]: 1200 ± 260 ng/mL
Tmax [5]: 10.2 min
half-life [5]: 214 ± 37.2 min
SMILES: COc1ccc2c(c1O)OC(C)(C)C=C2c1cccc2c1oc1ccccc12 [Compound 8]
inhibition at 10 µM ([1]; Mus musculus, 10 μM, BV-2 cells, LPS, read-out: % NO inh. at 10 μM): 102%
Anti-neuroinflammatory activity in compensated Griess assay with Taxol ([1]; SB26019 5 μM, with or without tubulin stabilizer Taxol): attenuated in the presence of Taxol in a dose-dependent manner
Total α-tubulin monomers [2]: increased the total α-tubulin monomers
